According to paper PMC3256212, “Mechanism and Function of Drosophila capa GPCR: A Desiccation Stress-Responsive Receptor with Functional Homology to Human NeuromedinU Receptor” (PLoS ONE, 2012):
Ends that are not written are not given here.

T1: capaR (CG14575) (Drosophila melanogaster, UniProt Q8ITC7)
T1 construct: The ORF of capaR was amplified from whole fly cDNA as template; expressed in transfected cells; host or cells: Drosophila S2 cells (pMT/V5-His TOPO, CuSO4 induction)
T1 sequence (Q8ITC7 1-477): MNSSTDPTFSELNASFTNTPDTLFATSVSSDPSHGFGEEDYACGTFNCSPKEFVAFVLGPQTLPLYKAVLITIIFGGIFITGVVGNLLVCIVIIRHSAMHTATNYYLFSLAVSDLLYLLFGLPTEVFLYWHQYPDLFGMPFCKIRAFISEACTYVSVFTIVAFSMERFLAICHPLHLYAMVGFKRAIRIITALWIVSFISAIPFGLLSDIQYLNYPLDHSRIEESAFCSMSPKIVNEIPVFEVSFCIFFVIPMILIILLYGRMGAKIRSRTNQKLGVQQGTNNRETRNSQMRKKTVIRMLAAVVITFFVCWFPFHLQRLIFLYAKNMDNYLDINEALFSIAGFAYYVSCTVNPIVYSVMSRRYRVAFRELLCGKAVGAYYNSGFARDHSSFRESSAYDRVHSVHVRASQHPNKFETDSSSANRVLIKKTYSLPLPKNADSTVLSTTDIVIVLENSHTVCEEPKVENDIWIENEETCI

T2: capa receptor (capaR, CG14575) expressed in S2 cells (D. melanogaster) (UniProt Q8ITC7)
T2 sequence: T1 sequence (Q8ITC7 1-477)


Assays:
phospholipase C (PLC) = assay: PLC inhibition: capa-1-induced [Ca2+]i response in S2-capaR cells; type: cell-based, Drosophila; settings: Fig. 1D
Procedure: (§1) Drosophila S2 cells, cultured under standard conditions were transiently transfected with the apoaequorin ORF [21] and a receptor ORF construct, and expression induced using CuSO4. Transfected S2 cells were harvested and incubated with 2.5 µM coelenterazine in the dark at RT for 1–2 h as previously described. 25,000 cells were then placed in 135 µl Schneider's medium supplemented with 10% FCS in a well of a white polystyrene 96-well plate (Berthold Technologies). Bioluminescence recordings were carried out using a Mithras LB940 automated 96-well plate reader (Berthold Technologies) and MikroWin software. 15 µl of each of different peptides were applied to final concentrations as required. At the end of each recording samples were disrupted by the addition of 100 µl lysis solution, and the [Ca^2+] concentrations calculated as previously described. For assays in Ca^2+-free medium, transfected cells were collected and pelleted after incubation with coelenterazine. Cell pellets were re-suspended in Ca^2+-free Schneider's medium (Invitrogen Inc.) without FCS and collected by centrifugation. The washing and pelleting procedure was repeated once more. Experiments were then carried out on 25,000 cells per sample as above. […]

capaR (CG14575) = molecular target: T1, capaR (CG14575); assay: [Ca2+]i (aequorin) in capaR-transfected S2 cells; type: cell-based; settings: for EC50: S2 cells expressing capaR and apoaequorin, maximal - background, mean ± S.E.M., N = 6 (Fig. 1C), read-out: EC50 for stimulated [Ca2+]i responses via capaR; for effect on [Ca2+]i via capaR: 10^−7 M, S2 cells (Fig. 3A)
From the text: The ORF of capaR was amplified from whole fly cDNA as template using the primers 5′-[…]-3′ and 5′-[…]-3′ and cloned into pMT/V5-His TOPO vector (Invitrogen). The eYFP ORF was fused in-frame at the C-terminus of the capaR using KpnI and ApaI sites and the tagged construct was cloned into the pMT/V5-His TOPO vector.
(§2) The capa peptides Drm-capa-1 (GANMGLYAFPRVamide), Drm-capa-2 (ASGLVAFPRVamide), Drm-PK-1 (TGPSASSGLWFGPRLamide), Drm-PK-2 (SVPFKPRLamide) and hugin gamma (hugg, pQLQSNGEPAYRVRTPRL-amide) were synthesised as C-terminally amidated peptides (Biomatik Corporation, Canada). Peptides were dissolved in distilled ACN/H2O to a concentration of 1 mM and then diluted to the required working concentration in Schneider's medium (Invitrogen Inc.). Human neuromedin U-25 was purchased from Sigma. Rabbit polyclonal antibody to porcine neuromedinU-8 was purchased from Progen biotechnik (Heidelberg, Germany). Rabbit capa precursor peptide used was described in [21] Rabbit anti-peptide antibody was raised against the capaR epitope (CQQGTNNRETRNSQM) by Genosphere Biotechnologies (Paris, France) and purified on a HiTrap NHS-activated HP column (Amersham Pharmacia Bio-tech; Buckinghamshire, UK) according to the manufacturer's instructions. Immunohistochemistry was carried out as described previously. Mouse anti-GFP primary antibody (Zymed) and the antiserum to neuromedinU-8 were all diluted 1∶1000 or, in the case of the pre-immune serum, the affinity-purified capaR antibody and the antiserum to the capa precursor peptide, 1∶500. Incubations in the primary antibodies were performed overnight. A FITC-conjugated affinity-purified goat anti-mouse antibody (Jackson Immunologicals) was used in a dilution of 1∶1,000 for visualization of the mouse monoclonal anti-GFP. A Texas red-conjugated affinity-purified goat anti-rabbit antibody (Jackson Immunologicals) was used at a dilution of 1∶1,000 for visualization of the rabbit capaR antiserum.
Drosophila S2 cells, cultured under standard conditions were transiently transfected with the apoaequorin ORF [21] and a receptor ORF construct, and expression induced using CuSO4. Transfected S2 cells were harvested and incubated with 2.5 µM coelenterazine in the dark at RT for 1–2 h as previously described. 25,000 cells were then placed in 135 µl Schneider's medium supplemented with 10% FCS in a well of a white polystyrene 96-well plate (Berthold Technologies). Bioluminescence recordings were carried out using a Mithras LB940 automated 96-well plate reader (Berthold Technologies) and MikroWin software. 15 µl of each of different peptides were applied to final concentrations as required. At the end of each recording samples were disrupted by the addition of 100 µl lysis solution, and the [Ca^2+] concentrations calculated as previously described. For assays in Ca^2+-free medium, transfected cells were collected and pelleted after incubation with coelenterazine. Cell pellets were re-suspended in Ca^2+-free Schneider's medium (Invitrogen Inc.) without FCS and collected by centrifugation. The washing and pelleting procedure was repeated once more. Experiments were then carried out on 25,000 cells per sample as above. To verify whether the observed calcium signal was linked to phospholipase C (PLC) activation, S2-capaR cells were preincubated with the PLC inhibitor U73122 at concentration of 10^−3 M to 10^−8 M for 10 min. Luminometry experiments were carried out on live, intact tubules expressing a targeted transgene for cytosolic-targeted apoaequorin in either principal or stellate cells as previously described, [22]. For in vivo tubule experiments, flies of the following genotypes were used: c42aeq, capaR-GAL4, UAS-capaR, UAS-capaR RNAi, UAS-NMUR 2 and the resulting progeny from GAL4>UAS crosses.

NMR 1 = test system: NMR 1; set-up: method as in earlier work; settings: CHO cells; ref 39 (Fujii et al.); cited from earlier work
NMU receptor 2 (NMUR 2) = molecular target: T3, NMU receptor 2 (NMUR 2) (Homo sapiens, UniProt Q9GZQ4); assay: [Ca2+]i (aequorin) in NMUR 2-transfected S2 cells; type: cell-based; settings: 10^−7 M, S2 cells (Fig. 3B)
T3 construct: expressed in transfected cells; host or cells: Drosophila S2 cells (pMT/V5-His TOPO)
Procedure: as §2
as §1, with “more.” for “more. Experiments were then carried out on 25,000 cells per sample as above.”

CG8795 (hugin receptor) = assay: [Ca2+]i (aequorin) in CG8795-transfected S2 cells; type: cell-based, Drosophila; settings: 10^−7 M, S2 cells (Fig. 3C)
Procedure: as §2, with “A Texas red-conjugated affinity-purified goat anti-rabbit antibody (Jackson Immunologicals) was used at a dilution of 1∶1,000 for visualization of the rabbit capaR antiserum.” left out
Drosophila S2 cells, cultured under standard conditions were transiently transfected with the apoaequorin ORF [21] and a receptor ORF construct, and expression induced using CuSO4. […] Bioluminescence recordings were carried out using a Mithras LB940 automated 96-well plate reader (Berthold Technologies) and MikroWin software. […] At the end of each recording samples were disrupted by the addition of 100 µl lysis solution, and the [Ca^2+] concentrations calculated as previously described. […]

Malpighian tubule = assay: Fluid transport by wild-type Malpighian tubules; set-up: species or system Drosophila melanogaster; settings: 10^−7 M; mean ± SEM, N = 6–10, Student's t-test P<0.05 (Fig. 4A)
Procedure: Fluid transport assays were carried out as previously described using live, intact tubules dissected from 7-day-old adults with the following genotypes: wild-type Canton-S, c42-GAL4>UAS-capaR RNAi, actin-GAL4>UAS-NMUR 2. Fluid droplets were collected every 10 min, and the volumes of fluid were calculated. Basal rates of fluid secretion were monitored for 30 min, whereupon peptide was added, and the secretion rate was then recorded for a further 30 min.

[1] = molecular target: T2, capa receptor (capaR, CG14575) expressed in S2 cells (D. melanogaster)
[2] = molecular target: T2, capa receptor (capaR, CG14575) expressed in S2 cells (D. melanogaster); remark: listed apart in the source
[3] = molecular target: human neuromedin U receptor 2 (human) (UniProt Q9GZQ4)
human neuromedin U receptor 2 (human), sequence (Q9GZQ4 whole entry): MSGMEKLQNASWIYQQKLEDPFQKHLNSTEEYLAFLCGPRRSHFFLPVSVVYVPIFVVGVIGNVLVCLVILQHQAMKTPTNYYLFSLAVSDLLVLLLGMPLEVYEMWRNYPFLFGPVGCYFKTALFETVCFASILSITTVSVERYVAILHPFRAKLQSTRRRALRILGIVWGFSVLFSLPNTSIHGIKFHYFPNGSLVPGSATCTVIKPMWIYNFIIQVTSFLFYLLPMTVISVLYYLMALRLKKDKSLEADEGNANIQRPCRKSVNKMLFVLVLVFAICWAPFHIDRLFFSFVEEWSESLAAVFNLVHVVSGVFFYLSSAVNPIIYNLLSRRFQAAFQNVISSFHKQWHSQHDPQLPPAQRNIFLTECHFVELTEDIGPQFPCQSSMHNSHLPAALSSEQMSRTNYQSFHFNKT

T3 sequence (Q9GZQ4 whole entry): as above

| Molecule | effect on [Ca2+]i via capaR (capaR (CG14575)) | effect on [Ca2+]i via NMUR 2 (NMU receptor 2 (NMUR 2)) | effect on [Ca2+]i via CG8795 (CG8795 (hugin receptor)) | fluid transport by wild-type tubules (Malpighian tubule) | further results |
| --- | --- | --- | --- | --- | --- |
| COc1ccc2c(c1)CC[C@@H]1[C@@H]2CC[C@]2(C)[C@@H](NCCCCCCN3C(=O)C=CC3=O)CC[C@@H]12 [U73122] |  |  |  |  | inhibition of capa-1-induced [Ca2+]i response (phospholipase C (PLC)): inhibited by the widely-used PLC inhibitor (U73122) in a dose-dependent manner |
| CSCC[C@H](NC(=O)[C@H](CC(N)=O)NC(=O)[C@H](C)NC(=O)CN)C(=O)NCC(=O)N[C@@H](CC(C)C)C(=O)N[C@@H](Cc1ccc(O)cc1)C(=O)N[C@@H](C)C(=O)N[C@@H](Cc1ccccc1)C(=O)N1CCC[C@H]1C(=O)N[C@@H](CCCNC(=N)N)C(=O)N[C@H](C(N)=O)C(C)C [capa-1] |  |  |  |  | EC50 (capaR (CG14575)): 3.06 nM |
| CC(C)C[C@H](NC(=O)CNC(=O)[C@H](CO)NC(=O)[C@H](C)N)C(=O)N[C@H](C(=O)N[C@@H](C)C(=O)N[C@@H](Cc1ccccc1)C(=O)N1CCC[C@H]1C(=O)N[C@@H](CCCNC(=N)N)C(=O)N[C@H](C(N)=O)C(C)C)C(C)C [capa-2] |  |  |  |  | EC50 (capaR (CG14575)): 4.32 nM |
| MNYLAFPRM-NH2 [SCPB] |  |  |  |  | agonistic activity to NMR 1 (NMR 1): significant agonistic activity |
| SVPFKPRL-NH2 [Drm-PK-2, Drosophila pyrokinin, SVPFKPRLamide] | do not have effects on either capaR | do not have effects on either capaR (Fig. 3A) or NMUR 2 | stimulates increased [Ca^2+]i levels | not with Drm-PK-1, hugg, Drm-PK-2 |  |
| TGPSASSGLWFGPRL-NH2 [Drm-PK-1, Drosophila pyrokinin, …amide] | do not have effects on either capaR | do not have effects on either capaR (Fig. 3A) or NMUR 2 | stimulates increased [Ca^2+]i levels | not with Drm-PK-1, hugg, Drm-PK-2 |  |
| pQLQSNGEPAYRVRTPRL-amide [hugg, hugin gamma, p…-amide] | but not hugg nor Drm-PK-2, increases intracellular calcium ([Ca^2+]i) levels via capaR | increases [Ca^2+]i via NMUR 2 but to a reduced level compared to capa-1 | stimulates increased [Ca^2+]i levels | not with Drm-PK-1, hugg, Drm-PK-2 |  |
| GANMGLYAFPRV-NH2 [Drm-capa-1] |  |  |  |  | [Ca2+]i (aequorin luminescence) in S2 cells expressing capaR and apoaequorin, dose-response to capa-1 [1]: 3.06 nM |
| FRVDEEFQSPFASQSRGYFLFRPRN-NH2 [Human neuromedin U-25] |  |  |  |  | [Ca2+]i, dose-response to NMU-25; first of two values given 'respectively', probably capaR- and apoaequorin-co-transfected S2 cells [2]: 21.8 nM; [Ca2+]i, dose-response to NMU-25; second of two values given 'respectively', probably intact tubules expressing apoaequorin in principal cells (endogenous capaR) [2]: 27.1 nM; [Ca2+]i in S2 cells expressing NMUR 2 and apoaequorin, dose-response to NMU-25 [3]: 0.91 nM |
| ASGLVAFPRV-NH2 [Drm-capa-2] |  |  |  |  | [Ca2+]i (aequorin luminescence) in S2 cells expressing capaR and apoaequorin, dose-response to capa-2 [1]: 4.32 nM |
